Experimental findings from US6506755B2, “Thiazolidinecarboxyl acids” (Hoffmann-La Roche Inc., priority 2000, dated 2003) are described below.

Test system in the first data set: not given
Assay: not given
Conditions: not given
Compound `Cc1ccc(COc2ccc(C=C3SC(=S)N(CC(=O)O)C3=O)c(OCc3ccc(C)cc3)c2)cc1` [Compound 2, 5-[(2,4-Bis-(4-methylphenylmethoxy)phenyl)methylene]-4-oxo-2-thioxo-3-thiazolidineacetic acid] returned a melting point of 211 °C.

The target of a further data set is human urokinase (uPA) binding to the specific receptor uPAR (Homo sapiens, UniProt Q03405). As to the kind of experiment: ELISA test of inhibition of uPA binding to the receptor uPAR. As to conditions: compound concentration 1 μg/ml, 96-well microtitre plates. The protocol: The compound of the invention were tested (ELISA test) as human urokinase (uPA) inhibitors, which bind to the specific receptor uPAR mAk (BIO-R4), in accordance with the procedure described by Rettenberger et al. In Biol. Chem. Hoppe Seyler 376, 587-94 (1995). The assays are carried out in microtitre plates (96 wells).
Chain of human urokinase (uPA) binding to the specific receptor uPAR (Q03405 23-305 limits assumed): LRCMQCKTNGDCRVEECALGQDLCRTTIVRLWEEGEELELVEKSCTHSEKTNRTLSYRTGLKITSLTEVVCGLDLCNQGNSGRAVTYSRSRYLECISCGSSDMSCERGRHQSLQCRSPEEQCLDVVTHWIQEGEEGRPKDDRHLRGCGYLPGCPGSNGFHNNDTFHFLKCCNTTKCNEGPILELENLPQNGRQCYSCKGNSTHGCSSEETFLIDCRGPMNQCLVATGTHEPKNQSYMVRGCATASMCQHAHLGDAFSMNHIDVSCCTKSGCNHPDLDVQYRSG
On the technique in general: ELISA stands for enzyme-linked immunosorbent assay.
Regarding `Cc1ccc(COc2ccc(C=C3SC(=S)N(C(C(=O)O)c4ccc(Cl)cc4)C3=O)c(OCc3ccc(C)cc3)c2)cc1` (stereo not drawn) [Example 24, 2-{5-[(2,4-Bis-(4-methylphenylmethoxy)phenyl)methylene]-4-oxo-2-thioxo-3-thiazolidine}-2-(4-chlorophenyl)acetic Acid], the “% Inhibition at 1 μg/ml concentration” value was 69%.
Same read-out and setting: with `Cc1ccc(COc2ccc(C=C3SC(=S)N(C(C(=O)O)c4ccccc4)C3=O)c(OCc3ccc(C)cc3)c2)cc1` (stereo not drawn) [Example 22, 2-{5-[(2,4-Bis-(4-methylphenylmethoxy)phenyl)methylene]-4-oxo-2-thioxo-3-thiazolidine}-2-phenylacetic Acid] the figure was 60%.
Compound `Cc1ccc(COc2ccc(C=C3SC(=S)N(CC(=O)O)C3=O)c(OCc3ccc(C)cc3)c2)cc1` [Compound 2, 5-[(2,4-Bis-(4-methylphenylmethoxy)phenyl)methylene]-4-oxo-2-thioxo-3-thiazolidineacetic acid] showed an inhibition at 1 µg/mL of 48%.
Same read-out and setting: with `Cc1ccc(COc2ccc(OCc3ccc(C)cc3)c(C=C3SC(=S)N(CC(=O)O)C3=O)c2)cc1` [Example 2, 5-[(2,5-Bis-(4-methylphenylmethoxy)phenyl)methylene]-4-oxo-2-thioxo-3-thiazolidineacetic Acid] the figure was 68%; with `O=C(O)CN1C(=O)C(=Cc2cc(OCCCc3ccccc3)ccc2OCc2cccs2)SC1=S` [Example 15, 5-[(2-(2-Thienylmethoxy)-5-(3-phenylpropoxy)phenyl)methylene]-4-oxo-2-thioxo-3-thiazolidineacetic Acid], 63%.
With `Cc1ccc(COc2ccc(C=C3SC(=S)N(C(Cc4ccccc4)C(=O)O)C3=O)c(OCc3ccc(C)cc3)c2)cc1` (stereo not drawn) [Example 23, 2-{5-[(2,4-Bis-(4-methylphenylmethoxy)phenyl)methylene]-4-oxo-2-thioxo-3-thiazolidine}-3-phenypropionic Acid], the “% Inhibition at 1 μg/ml concentration” value was 54%.
With `O=C(O)CN1C(=O)C(=Cc2cc(OCCCc3ccc(Cl)cc3)ccc2OCCCc2ccc(Cl)cc2)SC1=S` [Example 6, 5-[(2,5-Bis-(3-(4-chlorophenyl)propoxy)phenyl)methylene]-4-oxo-2-thioxo-3-thiazolidine-acetic Acid], the inhibition at 1 µg/mL came out at 57%.
The same measure, in the same setting: for `O=C(O)CN1C(=O)C(=Cc2cc(OCCCc3ccccc3)ccc2OCc2ccccc2)SC1=S` [Example 13, 5-[(2-Phenylmethoxy-5-(3-phenylpropoxy)phenyl)methylene]-4-oxo-2-thioxo-3-thiazolidineacetic Acid] the value was 53%.

As usually defined, the melting point is the temperature, or range, at which the solid turns liquid. In general, % Inhibition refers to the relative decrease from the control value, in per cent. A lower % Inhibition goes with little suppression. As a reminder, the inhibition is the change of the read-out against control, counted positive when it falls.
